Assay results as given in US8865756B2, “Inhibitors of HCV NS5A” (Presidio Pharmaceuticals, Inc., priority 2008, dated 2014).

Test system: HCV 1b_Huh-Luc/Neo-ET cell line persistently expressing a bicistronic genotype 1b replicon in Huh 7 cells
Assay: HCV replicon assay (luciferase readout)
Type: cell-based
Details: Hepatitis C virus, Huh-7, 72 h, read-out: Inhibition of HCV genotype 1b
Experimental: Biological activity of the compounds of the invention was determined using an HCV replicon assay. The HCV 1b_Huh-Luc/Neo-ET cell line persistently expressing a bicistronic genotype 1b replicon in Huh 7 cells was obtained from ReBLikon GMBH. This cell line was used to test compound inhibition using luciferase enzyme activity readout as a measurement of compound inhibition of replicon levels.
On Day 1 (the day after plating), each compound is added in triplicate to the cells. Plates incubated for 72 h prior to running the luciferase assay. Enzyme activity was measured using a Bright-Glo Kit (cat. number E2620) manufactured by Promega Corporation. The following equation was used to generate a percent control value for each compound. % Control=(Average Compound Value/Average Control)*100
The EC50 value was determined using GraphPad Prism and the following equation: Y=Bottom+(Top−Bottom)/(1+10^((Log IC50−X)*HillSlope))
EC50 values of compounds are determined several times in the replicon assay.
Example compounds of the disclosed invention are illustrated in Tables 1-14 attached as appendices. The tables show inhibitory activity of many of the example compounds with respect to HCV 1b. […] The tables further provide mass spectrometry results for the synthesized example compounds.

`COC(=O)N[C@@H](C(=O)N1CCC[C@H]1c1ncc(-c2ccc(C#Cc3ccc(-c4cnc([C@@H]5CCCN5C(=O)[C@H](NC(=O)N5CCC[C@H]5C)c5ccccc5)[nH]4)cc3)cc2)[nH]1)c1ccccc1` [Compound 262] and `COC(=O)N[C@@H](C(=O)N1CCC[C@H]1c1ncc(-c2ccc(C#Cc3ccc(-c4cnc([C@@H]5CCCN5C(=O)[C@H](NC(=O)N5CC[C@H](F)C5)c5ccccc5)[nH]4)cc3)cc2)[nH]1)c1ccccc1` [Compound 270] cannot be ordered by EC50: < 1 nM for the first, < 1 nM for the second.

`COC(=O)N[C@H](C(=O)N1CCC[C@H]1c1ncc(-c2ccc(C#Cc3ccc(-c4cnc([C@@H]5CCCN5C(=O)[C@@H](c5ccccc5)N5CCN(CCO)CC5)[nH]4)cc3)cc2)[nH]1)C(C)C` [Compound 958] and `COC(=O)N[C@H](C(=O)N1CCC[C@H]1c1ncc(-c2ccc(C#Cc3ccc(-c4cnc([C@@H]5CCCN5C(=O)[C@@H](c5ccccc5)N5CCC(O)CC5)[nH]4)cc3)cc2)[nH]1)C(C)C` [Compound 956] cannot be ordered by EC50: < 1 nM for the first, < 1 nM for the second.

`CCN(CC)[C@@H](C(=O)N1CCC[C@H]1c1ncc(-c2ccc(C#Cc3ccc(-c4cnc([C@@H]5CCCN5C(=O)[C@@H](NC(=O)OC)C(C)C)[nH]4)cc3)cc2)[nH]1)c1ccccc1` [Compound 985] and `COC(=O)N[C@H](C(=O)N1CCC[C@H]1c1ncc(-c2ccc(C#Cc3ccc(-c4cnc([C@@H]5CCCN5C(=O)[C@@H](c5ccccc5)N5CCCCC5)[nH]4)cc3)cc2)[nH]1)C(C)C` [Compound 986] cannot be ordered by EC50: < 1 nM for the first, < 1 nM for the second.

`COC(=O)N[C@H](C(=O)N[C@@H](C)c1nc2ccc(C#Cc3ccc(-c4cnc([C@@H]5CCCN5C(=O)[C@@H](NC(=O)OC)C(C)C)[nH]4)cc3)cc2[nH]1)C(C)C` [Compound 867] and `COC(=O)N[C@H](C(=O)N[C@@H](C)c1ncc(-c2ccc(C#Cc3ccc4nc([C@@H]5CCCN5C(=O)[C@@H](NC(=O)OC)C(C)C)[nH]c4c3)cc2)[nH]1)C(C)C` [Compound 869] cannot be ordered by EC50: < 1 nM for the first, < 1 nM for the second.

First: COC(=O)N[C@H](C(=O)N1CCC[C@H]1c1ncc(-c2ccc(C#Cc3ccc(-c4cnc([C@@H]5CCCN5C(=O)[C@H](NC(=O)N5CCC(O)CC5)c5ccccc5)[nH]4)cc3)cc2)[nH]1)C(C)C [Compound 991]
Second: COC(=O)N[C@@H](C(=O)N1CCC[C@H]1c1ncc(-c2ccc(C#Cc3ccc(-c4cnc([C@@H]5CCCN5C(=O)N5CCOCC5)[nH]4)cc3)cc2)[nH]1)c1ccccc1 [Compound 198]
The EC50 of the first is higher: 1 to 9.9 nM for the first, < 1 nM for the second.

`COC(=O)N[C@H](C(=O)N1CCC[C@H]1c1ncc(-c2ccc(C#Cc3ccc4nc([C@@H]5CCCN5C(=O)[C@H](C(C)C)N(C)C)[nH]c4c3)cc2)[nH]1)C(C)C` [Compound 1021] and `COC(=O)N[C@H](C(=O)N1CCC[C@H]1c1nc2ccc(C#Cc3ccc(-c4cnc([C@@H]5CCCN5C(=O)[C@H](C(C)C)N(C)C)[nH]4)cc3)cc2[nH]1)C(C)C` [Compound 866] cannot be ordered by EC50: < 1 nM for the first, < 1 nM for the second.

`COC(=O)N[C@H](C(=O)N[C@@H](C)c1ncc(-c2ccc(C#Cc3ccc(-c4cnc([C@H](C)NC(=O)[C@@H](NC(=O)OC)C(C)C)[nH]4)cc3)cc2)[nH]1)C(C)C` [Compound 951] and `COC(=O)N[C@H](C(=O)N[C@@H](C)c1ncc(-c2ccc(C#Cc3ccc(-c4cnc([C@@H]5CCCN5C(=O)[C@@H](NC(=O)OC)C(C)C)[nH]4)cc3)cc2)[nH]1)C(C)C` [Compound 275] cannot be ordered by EC50: < 1 nM for the first, < 1 nM for the second.

First: CC(C)[C@H](NC(=O)OC(C)(C)C)C(=O)N1CCC[C@H]1c1ncc(-c2ccc(C#Cc3ccc(-c4cnc([C@@H]5CCCN5C(=O)[C@@H](NC(=O)OC(C)(C)C)C(C)C)[nH]4)cc3)cc2)[nH]1 [Compound 165]
Second: COC(=O)N[C@H](C(=O)N1CCC[C@H]1c1ncc(-c2ccc(C#Cc3ccc(-c4cnc([C@@H]5CCCN5C(=O)[C@@H](NC(=O)OC)[C@@H](C)O)[nH]4)cc3)cc2)[nH]1)[C@@H](C)O [Compound 283]
The EC50 of the first is higher: 10 to 999 nM for the first, < 1 nM for the second.

`COC(=O)N[C@@H](C(=O)N1CCC[C@H]1c1ncc(-c2ccc(C#Cc3ccc(C(=O)NC[C@@H]4CCCN4C(=O)[C@@H](c4ccccc4)N4CCCCC4)cc3)cc2)[nH]1)c1ccccc1` [Compound 233] and `O=C(N[C@@H](C(=O)N1CCC[C@H]1c1ncc(-c2ccc(C#Cc3ccc(-c4cnc([C@@H]5CCCN5C(=O)[C@@H](c5ccccc5)N5CCCCC5)[nH]4)cc3)cc2)[nH]1)c1ccccc1)C1CC1` [Compound 208] cannot be ordered by EC50: < 1 nM for the first, < 1 nM for the second.

`CNC(=O)N[C@@H](C(=O)N1CCC[C@H]1c1ncc(-c2ccc(C#Cc3ccc(-c4cnc([C@@H]5CCCN5C(=O)[C@H](NC(=O)NC)c5ccccc5)[nH]4)cc3)cc2)[nH]1)c1ccccc1` [Compound 162] and `COC(=O)N[C@@H](C(=O)N1CCC[C@H]1c1ncc(-c2ccc(C#Cc3ccc(-c4cnc([C@@H]5CCCN5C(=O)[C@H](NC(=O)C5(O)CC5)c5ccccc5)[nH]4)cc3)cc2)[nH]1)c1ccccc1` [Compound 277] cannot be ordered by EC50: < 1 nM for the first, < 1 nM for the second.

`COC(=O)N[C@@H](Cc1c[nH]c2ccccc12)C(=O)N1CCC[C@H]1c1ncc(-c2ccc(C#Cc3ccc4nc([C@@H]5CCCN5C(=O)[C@H](Cc5c[nH]c6ccccc56)NC(=O)OC)[nH]c4c3)cc2)[nH]1` [Compound 1057] and `COC(=O)N[C@H](C(=O)N1CCC[C@H]1c1ncc(-c2ccc(C#Cc3ccc4nc([C@@H]5CCCN5C(=O)[C@H](NC(=O)OC)c5ccccc5)[nH]c4c3)cc2)[nH]1)C(C)C` [Compound 1023] cannot be ordered by EC50: < 1 nM for the first, < 1 nM for the second.

`COC(=O)N[C@@H](CC(C)C)C(=O)N1CCC[C@H]1c1ncc(-c2ccc(C#Cc3ccc4nc([C@@H]5CCCN5C(=O)[C@H](CC(C)C)NC(=O)OC)[nH]c4c3)cc2)[nH]1` [Compound 1067] and `CCC(CC)[C@H](NC(=O)OC)C(=O)N1CCC[C@H]1c1ncc(-c2ccc(C#Cc3ccc4nc([C@@H]5CCCN5C(=O)[C@@H](NC(=O)OC)C(CC)CC)[nH]c4c3)cc2)[nH]1` [Compound 1030] cannot be ordered by EC50: < 1 nM for the first, < 1 nM for the second.

`CC1(O)CCC(C(=O)N[C@@H](C(=O)N2CCC[C@H]2c2nc(-c3ccc4cc(C#Cc5cnc([C@@H]6CCCN6C(=O)[C@H](NC(=O)N6CCC(C)(O)CC6)c6ccccc6)[nH]5)ccc4c3)c[nH]2)c2ccccc2)CC1` (stereo partly drawn) [Compound 805] and `COC(=O)N[C@@H](C(=O)N1CCC[C@H]1c1ncc(-c2ccc(C#Cc3ccc(-c4cnc([C@@H]5CCCN5C(=O)[C@H](NC(=O)N5CCC(C)(O)CC5)c5ccccc5)[nH]4)cc3)cc2)[nH]1)c1ccccc1` [Compound 273] cannot be ordered by EC50: < 1 nM for the first, < 1 nM for the second.

`COC(=O)NC(C(=O)N1CCC[C@H]1c1ncc(-c2ccc(C#Cc3ccc(-c4cnc([C@@H]5CCCN5C(=O)[C@@H](NC(=O)OC)C(C)C)[nH]4)c(F)c3)cc2)[nH]1)C(C)C` (stereo partly drawn) [Compound 1011] and `COC(=O)N[C@H](C(=O)N1CCC[C@H]1c1ncc(-c2ccc(C#Cc3ccc(-c4cnc([C@@H]5CCCN5C(=O)[C@@H](Nc5ncccn5)C(C)C)[nH]4)cc3)cc2)[nH]1)C(C)C` [Compound 1003] cannot be ordered by EC50: < 1 nM for the first, < 1 nM for the second.

First: COC(=O)N[C@H]1CCC[C@@H]1C(=O)N1CCC[C@H]1c1ncc(-c2ccc(C#Cc3ccc4nc([C@@H]5CCCN5C(=O)[C@H]5CCC[C@@H]5NC(=O)OC)[nH]c4c3)cc2)[nH]1 [Compound 1059]
Second: COC(=O)N[C@H](C(=O)N1CCC[C@H]1c1ncc(-c2ccc(C#Cc3ccc4nc([C@@H]5CCCN5C(=O)[C@@H](NC(=O)OC)C5CCCC5)[nH]c4c3)cc2)[nH]1)C1CCCC1 [Compound 1025]
The EC50 of the first is higher: 10 to 999 nM for the first, < 1 nM for the second.

`COC(=O)N[C@@H](C(=O)N1CCC[C@H]1c1ncc(-c2ccc(C#Cc3ccc(-c4cnc([C@@H]5CCCN5C(=O)[C@H](NC(=O)[C@@H]5CCCO5)c5ccccc5)[nH]4)cc3)cc2)[nH]1)c1ccccc1` [Compound 195] and `COC(=O)N[C@@H](C)C(=O)N1CCC[C@H]1c1ncc(-c2ccc(C#Cc3ccc(-c4cnc([C@@H]5CCCN5C(=O)[C@@H](c5ccccc5)N5CCOC5=O)[nH]4)cc3)cc2)[nH]1` [Compound 1008] cannot be ordered by EC50: < 1 nM for the first, < 1 nM for the second.

`CN1CCN(C(=O)N[C@@H](C(=O)N2CCC[C@H]2c2cc(-c3ccc(C#Cc4ccc(-c5cnc([C@@H]6CCCN6C(=O)[C@H](NC(=O)N6CCN(C)CC6)c6ccccc6)[nH]5)cc4)cc3)n[nH]2)c2ccccc2)CC1` [Compound 213] and `O=C([C@@H](c1ccccc1)N1CCCCC1)N1CCC[C@H]1c1ncc(-c2ccc(C#Cc3ccc(-c4cnc([C@@H]5CCCN5C(=O)[C@@H](c5ccccc5)N5CCCCC5)[nH]4)cc3)cc2)[nH]1` [Compound 205] cannot be ordered by EC50: < 1 nM for the first, < 1 nM for the second.

`COC(=O)N[C@H](C(=O)N1CCC[C@H]1c1nc2c([nH]1)-c1ccc(C#Cc3ccc(-c4cnc([C@@H]5CCCN5C(=O)[C@@H](NC(=O)OC)C5CCOCC5)[nH]4)cc3)cc1CC2)C(C)C` [Compound 1091] and `COC(=O)N[C@H](C(=O)N1CCC[C@H]1c1ncc(-c2ccc(C#Cc3ccc4nc([C@@H]5CCCN5C(=O)[C@@H](NC(=O)OC)C5CC5)[nH]c4c3)cc2)[nH]1)C1CC1` [Compound 1029] cannot be ordered by EC50: < 1 nM for the first, < 1 nM for the second.

First: CC(C)(C)OC(=O)NCC(=O)N1CCC[C@H]1c1ncc(C#Cc2ccc(-c3cnc([C@@H]4CCCN4C(=O)CNC(=O)OC(C)(C)C)[nH]3)cc2)[nH]1 [Compound 103]
Second: COC(=O)N[C@H](C(=O)N1CCC[C@H]1c1nc2ccc3cc(C#Cc4ccc(-c5cnc([C@@H]6CCCN6C(=O)[C@H](NC(=O)OC)c6ccccc6)[nH]5)cc4F)ccc3c2[nH]1)C(C)C [Compound 1100]
The EC50 of the first is higher: 10 to 999 nM for the first, < 1 nM for the second.

`COC(=O)N[C@@H](C(=O)N1CCC[C@H]1c1nc2ccc(C#Cc3ccc4nc([C@@H]5CCCN5C(=O)[C@H](NC(=O)OC)c5ccccc5)[nH]c4c3)cc2[nH]1)c1ccccc1` [Compound 851] was tested, and the EC50 was < 1 nM.
